# Results from the supplement of paper PMC9663587.
# Experiments:
# Test in all cases: area over the GR curve, 72 h; higher = more effect;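 note: Dye Drop or Deep Dye Drop imaging of viable cells in 384-well plates (Hoechst nuclei, LIVE/DEAD dye), nine half-log doses, GR normalized to DMSO controls and time-zero plates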
# [1] = tested on: PDX1328
# [2] = tested on: HCC1187
# [3] = tested on: HCC1569
# [4] = tested on: HCC1143
# [5] = tested on: SUM149
# [6] = tested on: MGH312
# [7] = tested on: BT474
# [8] = tested on: HTERT_HME1
# [9] = tested on: SUM190PT
# [10] = tested on: HCC38
# [11] = tested on: MDAMB468
# [12] = tested on: SUM1315
# [13] = tested on: MDAMB415
SMILES,area over the GR curve [1],area over the GR curve [2],area over the GR curve [3],area over the GR curve [4],area over the GR curve [5],area over the GR curve [6],area over the GR curve [7],area over the GR curve [8],area over the GR curve [9],area over the GR curve [10],area over the GR curve [11],area over the GR curve [12],area over the GR curve [13]
COc1ccc2c(c1)[C@]1(C[C@H]1c1ccc3c(/C=C/c4ccc(CN5C[C@@H](C)O[C@@H](C)C5)cc4)n[nH]c3c1)C(=O)N2,0.553 GR,0.535 GR,0.435 GR,0.534 GR,0.672 GR,1.19 GR,0.475 GR,0.734 GR,0.751 GR,0.852 GR,0.838 GR,0.83 GR,0.36 GR
COc1cccc(OCCCN)c1-c1cc(Nc2cnc(C#N)cn2)n[nH]1,0.442 GR,0.235 GR,0.355 GR,0.619 GR,0.793 GR,0.0934 GR,0.186 GR,0.596 GR,0.598 GR,0.858 GR,0.227 GR,0.809 GR,0.0862 GR
CC(=O)Nc1cccc(-n2c(=O)n(C3CC3)c(=O)c3c(Nc4ccc(I)cc4F)n(C)c(=O)c(C)c32)c1 (max 1 µM),0.166 GR,0.198 GR,0.135 GR,0.538 GR,0.39 GR,-0.169 GR,-0.316 GR,0.434 GR,0.0746 GR,0.207 GR,0.213 GR,0.389 GR,0.174 GR
CCc1cnn2c(NCc3ccc[n+]([O-])c3)cc(N3CCCC[C@H]3CCO)nc12 (max 1 µM),0.656 GR,0.942 GR,0.541 GR,0.545 GR,0.687 GR,0.867 GR,0.728 GR,0.552 GR,0.654 GR,0.62 GR,0.568 GR,0.766 GR,0.55 GR
CC(=O)c1c(C)c2cnc(Nc3ccc(N4CCNCC4)cn3)nc2n(C2CCCC2)c1=O (max 3.162 µM),0.252 GR,0.268 GR,0.0095 GR,0.255 GR,0.19 GR,-0.129 GR,0.194 GR,0.259 GR,0.319 GR,0.371 GR,-0.0231 GR,0.33 GR,0.454 GR
CCc1cncnc1N1CCN(Cc2nc3ccc(C(F)(F)F)cc3[nH]2)CC1 (max 10 µM),0.0319 GR,0.014 GR,0.0337 GR,0.0639 GR,0.0207 GR,-0.0701 GR,-0.104 GR,0.117 GR,0.0049 GR,-0.0304 GR,0.118 GR,0.0975 GR,0.0085 GR
CCCCOc1c(C(=O)c2c(F)cc(C)cc2F)c[nH]c2nncc1-2 (max 10 µM),0.142 GR,0.203 GR,0.657 GR,0.837 GR,0.637 GR,0.628 GR,0.137 GR,0.862 GR,0.715 GR,0.768 GR,0.516 GR,0.872 GR,0.349 GR
CCN1CCN(Cc2ccc(Nc3ncc(F)c(-c4cc(F)c5nc(C)n(C(C)C)c5c4)n3)nc2)CC1 (max 10 µM),0.676 GR,0.33 GR,0.132 GR,0.541 GR,0.344 GR,0.124 GR,0.329 GR,0.428 GR,0.66 GR,0.64 GR,0.176 GR,0.582 GR,0.71 GR
CNc1nc(-c2ccc3c(N)n[nH]c3c2)cc(N2C[C@@H](C(=O)NC3CCCCC3)CC[C@H]2C)n1 (max 10 µM),0.136 GR,-0.283 GR,0.114 GR,0.0906 GR,0.0419 GR,0.718 GR,0.332 GR,0.128 GR,0.292 GR,0.0564 GR,0.0821 GR,0.291 GR,0.295 GR
CO[C@@H](C)Cn1c(=O)n(C)c2cnc3ccc(-c4cncc(C(C)(C)O)c4)cc3c21 (max 10 µM),0.72 GR,0.303 GR,0.768 GR,0.446 GR,0.286 GR,1.21 GR,1.15 GR,0.676 GR,1.16 GR,0.664 GR,0.669 GR,0.693 GR,0.922 GR
Cc1nn(C)c(COc2ccc(N3CCN(S(=O)(=O)N(C)C)CC3)cc2)c1-c1cccc2c(CCCOc3cccc4ccccc34)c(C(=O)O)n(CCN3CCOCC3)c12 (max 10 µM),-0.0317 GR,-0.0287 GR,-0.0353 GR,0.064 GR,0.0361 GR,-0.123 GR,-0.0275 GR,0.339 GR,-0.063 GR,0.0151 GR,0.0206 GR,-0.0531 GR,0.0101 GR
CN(C)CC[C@H](CSc1ccccc1)Nc1ccc(S(=O)(=O)NC(=O)c2ccc(N3CCN(Cc4ccccc4-c4ccc(Cl)cc4)CC3)cc2)cc1[N+](=O)[O-] [ABT-737] (max 10 µM),0.304 GR,0.526 GR,0.318 GR,0.102 GR,0.142 GR,0.224 GR,-0.0268 GR,0.081 GR,0.492 GR,0.296 GR,0.086 GR,0.0822 GR,0.0607 GR
C=CCn1c(=O)c2cnc(Nc3ccc(N4CCN(C)CC4)cc3)nc2n1-c1cccc(C(C)(C)O)n1 [AZD1775] (max 10 µM),0.806 GR,0.822 GR,0.825 GR,0.355 GR,0.614 GR,0.334 GR,0.387 GR,0.441 GR,0.615 GR,0.961 GR,0.47 GR,1.02 GR,0.28 GR
CNC(=O)c1cccc(-c2ccc3c(N4CCOC[C@@H]4C)nc(N4CCOC[C@@H]4C)nc3n2)c1 [AZD2014] (max 10 µM),0.706 GR,0.296 GR,0.625 GR,0.422 GR,0.385 GR,1.39 GR,1.01 GR,0.601 GR,0.844 GR,0.418 GR,0.401 GR,0.663 GR,0.762 GR
NC1(C(=O)N[C@@H](CCO)c2ccc(Cl)cc2)CCN(c2nc[nH]c3nccc2-3)CC1 [AZD5363] (max 10 µM),0.0959 GR,-0.203 GR,0.433 GR,0.0834 GR,0.109 GR,1.44 GR,0.568 GR,0.188 GR,0.272 GR,0.0939 GR,0.135 GR,0.144 GR,0.855 GR
